Measured values published in ChEMBL document CHEMBL1142250, “Discovery of azetidinone acids as conformationally-constrained dual PPARalpha/gamma agonists” (Bioorg Med Chem Lett, 2008).

Target: Cytochrome P450 2C9 (Homo sapiens, UniProt P11712)
Experiment: Inhibition of CYP2C9
Assay type: ADME
Details: not given

Chain of Cytochrome P450 2C9 (P11712 whole entry): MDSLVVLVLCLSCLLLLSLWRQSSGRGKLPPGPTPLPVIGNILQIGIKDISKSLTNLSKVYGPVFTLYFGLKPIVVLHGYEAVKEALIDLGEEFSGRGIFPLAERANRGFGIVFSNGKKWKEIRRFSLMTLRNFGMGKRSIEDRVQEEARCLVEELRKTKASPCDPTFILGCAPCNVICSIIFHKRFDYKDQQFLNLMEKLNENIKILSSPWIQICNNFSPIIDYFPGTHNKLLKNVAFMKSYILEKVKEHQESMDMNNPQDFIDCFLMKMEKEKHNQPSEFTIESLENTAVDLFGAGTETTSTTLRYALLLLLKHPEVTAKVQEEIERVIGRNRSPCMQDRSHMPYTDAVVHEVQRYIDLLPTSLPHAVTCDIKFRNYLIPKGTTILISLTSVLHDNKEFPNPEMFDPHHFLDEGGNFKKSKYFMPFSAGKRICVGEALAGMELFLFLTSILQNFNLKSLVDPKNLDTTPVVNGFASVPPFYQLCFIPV

SMILES	IC50
Cc1oc(-c2ccc(Cl)cc2)nc1CCOc1cccc(C[C@@H]2C(=O)N(c3ccc(C(C)(C)C)cc3)[C@@H]2C(=O)O)c1	410 nM
COc1ccc(N2C(=O)[C@@H](Cc3ccc(OCCc4nc(-c5ccccc5)oc4C)cc3)[C@H]2C(=O)O)cc1	14000 nM
COc1cccc(-c2nc(CCOc3cccc(C[C@@H]4C(=O)N(c5ccc(C(C)(C)C)cc5)[C@@H]4C(=O)O)c3)c(C)o2)c1	650 nM
COc1ccc(N2C(=O)[C@@H](Cc3cccc(OCCc4nc(-c5ccccc5)oc4C)c3)[C@H]2C(=O)O)cc1	2200 nM

System: Mus musculus
Experiment: Decrease in plasma glucose level in db/db mouse at 10 mg/kg/day, po qd after 14 days
Assay type: functional
Set-up: scale not given: the % may be the effect or the level left
Details: not given

SMILES	Activity
COc1ccc(N2C(=O)[C@@H](Cc3cccc(OCCc4nc(-c5ccccc5)oc4C)c3)[C@H]2C(=O)O)cc1	-43%

Target: T1, Cytochrome P450 3A4 (Homo sapiens, UniProt P08684)
T1 sequence (P08684 whole entry): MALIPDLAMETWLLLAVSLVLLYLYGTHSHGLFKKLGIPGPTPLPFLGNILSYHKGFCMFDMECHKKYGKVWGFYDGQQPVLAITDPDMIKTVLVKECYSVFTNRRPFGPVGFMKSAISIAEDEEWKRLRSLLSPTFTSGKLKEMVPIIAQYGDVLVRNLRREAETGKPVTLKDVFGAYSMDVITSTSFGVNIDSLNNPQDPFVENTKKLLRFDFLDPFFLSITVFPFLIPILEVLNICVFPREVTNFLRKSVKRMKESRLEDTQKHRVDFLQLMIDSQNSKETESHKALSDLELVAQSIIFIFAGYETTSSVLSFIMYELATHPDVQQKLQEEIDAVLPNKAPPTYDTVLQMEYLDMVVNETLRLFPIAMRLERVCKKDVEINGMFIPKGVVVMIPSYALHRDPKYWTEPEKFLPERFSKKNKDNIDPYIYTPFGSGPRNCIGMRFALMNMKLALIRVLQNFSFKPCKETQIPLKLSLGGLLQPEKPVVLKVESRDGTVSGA
Experiment: Inhibition of CYP3A4 in presence of 7-benzyloxy-4-trifluoromethyl coumarin substrate
Assay type: ADME
Details: not given

SMILES	IC50
Cc1oc(-c2ccc(Cl)cc2)nc1CCOc1cccc(C[C@@H]2C(=O)N(c3ccc(C(C)(C)C)cc3)[C@@H]2C(=O)O)c1	4700 nM
COc1ccc(N2C(=O)[C@@H](Cc3ccc(OCCc4nc(-c5ccccc5)oc4C)cc3)[C@H]2C(=O)O)cc1	33000 nM
COc1ccc(N2C(=O)[C@@H](Cc3cccc(OCCc4nc(-c5ccccc5)oc4C)c3)[C@H]2C(=O)O)cc1	50000 nM

Target: T2, Peroxisome proliferator-activated receptor gamma (Homo sapiens, UniProt P37231)
T2 sequence (P37231 whole entry): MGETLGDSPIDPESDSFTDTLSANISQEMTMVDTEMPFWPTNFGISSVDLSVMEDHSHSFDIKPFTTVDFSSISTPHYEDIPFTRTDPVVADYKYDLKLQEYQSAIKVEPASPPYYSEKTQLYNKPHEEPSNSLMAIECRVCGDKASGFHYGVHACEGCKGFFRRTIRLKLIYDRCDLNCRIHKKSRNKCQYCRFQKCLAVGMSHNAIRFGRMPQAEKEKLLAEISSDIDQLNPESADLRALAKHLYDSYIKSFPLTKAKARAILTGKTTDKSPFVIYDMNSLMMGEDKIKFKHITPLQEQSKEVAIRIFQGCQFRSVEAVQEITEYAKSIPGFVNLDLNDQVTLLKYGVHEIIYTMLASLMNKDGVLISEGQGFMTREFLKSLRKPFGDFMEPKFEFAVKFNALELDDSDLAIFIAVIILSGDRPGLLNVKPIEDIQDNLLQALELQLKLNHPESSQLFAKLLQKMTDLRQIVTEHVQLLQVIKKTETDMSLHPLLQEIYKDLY
Experiment: Inhibition of PPARgamma
Details: not given

SMILES	IC50
Cc1oc(-c2ccc(Cl)cc2)nc1CCOc1cccc(C[C@@H]2C(=O)N(c3ccc(C(C)(C)C)cc3)[C@@H]2C(=O)O)c1	670 nM
COc1ccc(N2C(=O)[C@@H](Cc3ccc(OCCc4nc(-c5ccccc5)oc4C)cc3)[C@H]2C(=O)O)cc1	40 nM
COc1cccc(-c2nc(CCOc3cccc(C[C@@H]4C(=O)N(c5ccc(C(C)(C)C)cc5)[C@@H]4C(=O)O)c3)c(C)o2)c1	110 nM
COc1ccc(N2C(=O)[C@@H](Cc3cccc(OCCc4nc(-c5ccccc5)oc4C)c3)[C@H]2C(=O)O)cc1	100 nM

Target: T3, Peroxisome proliferator-activated receptor alpha (Homo sapiens, UniProt Q07869)
T3 sequence (Q07869 whole entry): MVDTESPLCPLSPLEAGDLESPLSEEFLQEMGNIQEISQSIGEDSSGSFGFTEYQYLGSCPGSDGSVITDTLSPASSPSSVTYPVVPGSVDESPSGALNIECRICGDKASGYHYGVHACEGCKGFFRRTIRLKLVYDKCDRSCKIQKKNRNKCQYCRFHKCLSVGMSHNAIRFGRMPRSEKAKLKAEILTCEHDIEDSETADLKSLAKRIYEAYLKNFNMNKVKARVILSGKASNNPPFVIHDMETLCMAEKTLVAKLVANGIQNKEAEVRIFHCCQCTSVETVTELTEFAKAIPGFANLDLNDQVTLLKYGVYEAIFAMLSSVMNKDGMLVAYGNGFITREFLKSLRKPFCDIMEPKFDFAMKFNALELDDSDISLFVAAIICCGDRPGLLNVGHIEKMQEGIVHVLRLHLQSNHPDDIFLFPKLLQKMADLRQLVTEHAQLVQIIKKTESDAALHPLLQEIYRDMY
Experiment: Agonist activity at PPARalpha in HEK293 cells by GAL4 transactivation assay
Assay type: functional, cell-based
Details: not given

SMILES	EC50
Cc1oc(-c2ccc(Cl)cc2)nc1CCOc1cccc(C[C@@H]2C(=O)N(c3ccc(C(C)(C)C)cc3)[C@@H]2C(=O)O)c1	5 nM
COc1ccc(N2C(=O)[C@@H](Cc3ccc(OCCc4nc(-c5ccccc5)oc4C)cc3)[C@H]2C(=O)O)cc1	150 nM
COc1cccc(-c2nc(CCOc3cccc(C[C@@H]4C(=O)N(c5ccc(C(C)(C)C)cc5)[C@@H]4C(=O)O)c3)c(C)o2)c1	40 nM
COc1ccc(N2C(=O)[C@@H](Cc3cccc(OCCc4nc(-c5ccccc5)oc4C)c3)[C@H]2C(=O)O)cc1	70 nM

Target: T4, Peroxisome proliferator-activated receptor alpha (Homo sapiens) (UniProt Q07869)
T4 sequence (whole entry): T3 sequence (Q07869 whole entry)
Experiment: Agonist activity at PPARalpha in HEK293 cells at 1 uM by GAL4 transactivation assay relative to GW-2331
Assay type: functional, cell-based
Details: not given

SMILES	Intrinsic activity
Cc1oc(-c2ccc(Cl)cc2)nc1CCOc1cccc(C[C@@H]2C(=O)N(c3ccc(C(C)(C)C)cc3)[C@@H]2C(=O)O)c1	> 90%
COc1ccc(N2C(=O)[C@@H](Cc3ccc(OCCc4nc(-c5ccccc5)oc4C)cc3)[C@H]2C(=O)O)cc1	> 90%
COc1cccc(-c2nc(CCOc3cccc(C[C@@H]4C(=O)N(c5ccc(C(C)(C)C)cc5)[C@@H]4C(=O)O)c3)c(C)o2)c1	> 90%
COc1ccc(N2C(=O)[C@@H](Cc3cccc(OCCc4nc(-c5ccccc5)oc4C)c3)[C@H]2C(=O)O)cc1	> 90%

Target: Cytochrome P450 2C19 (Homo sapiens, UniProt P33261)
Sequence (P33261 whole entry): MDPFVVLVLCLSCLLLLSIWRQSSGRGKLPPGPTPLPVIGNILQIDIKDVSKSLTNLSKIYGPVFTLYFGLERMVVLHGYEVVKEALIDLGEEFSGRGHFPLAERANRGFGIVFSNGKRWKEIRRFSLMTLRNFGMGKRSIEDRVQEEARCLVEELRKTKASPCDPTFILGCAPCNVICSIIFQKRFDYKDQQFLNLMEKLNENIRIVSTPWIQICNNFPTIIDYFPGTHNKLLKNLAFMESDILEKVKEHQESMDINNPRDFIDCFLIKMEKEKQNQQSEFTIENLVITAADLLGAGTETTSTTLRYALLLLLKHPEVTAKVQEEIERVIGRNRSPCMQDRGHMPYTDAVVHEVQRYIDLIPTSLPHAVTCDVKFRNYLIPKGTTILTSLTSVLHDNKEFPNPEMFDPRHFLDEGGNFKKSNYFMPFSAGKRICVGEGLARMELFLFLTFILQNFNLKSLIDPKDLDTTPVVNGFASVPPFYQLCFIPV
Experiment: Inhibition of CYP2C19
Assay type: ADME
Details: not given

SMILES	IC50
Cc1oc(-c2ccc(Cl)cc2)nc1CCOc1cccc(C[C@@H]2C(=O)N(c3ccc(C(C)(C)C)cc3)[C@@H]2C(=O)O)c1	2800 nM
COc1cccc(-c2nc(CCOc3cccc(C[C@@H]4C(=O)N(c5ccc(C(C)(C)C)cc5)[C@@H]4C(=O)O)c3)c(C)o2)c1	8300 nM

System: not listed separately
Experiment: Drug concentration in db/db mouse plasma at 10 mg/kg/day, po qd after 14 days
Assay type: ADME, organism-based
Set-up: route oral
Details: not given

SMILES	concentration at 336 h
COc1ccc(N2C(=O)[C@@H](Cc3cccc(OCCc4nc(-c5ccccc5)oc4C)c3)[C@H]2C(=O)O)cc1	2800 nM

System: Liver
Experiment: Drug concentration in db/db mouse liver at 10 mg/kg/day, po qd after 14 days
Assay type: ADME, organism-based
Set-up: route oral
Details: in vivo, 336 h

SMILES	Drug uptake
COc1ccc(N2C(=O)[C@@H](Cc3cccc(OCCc4nc(-c5ccccc5)oc4C)c3)[C@H]2C(=O)O)cc1	10.4 nmol/g

System: Adipose tissue
Experiment: Drug concentration in db/db mouse adipose at 10 mg/kg/day, po qd after 14 days
Assay type: ADME, organism-based
Set-up: route oral
Details: in vivo, 336 h

SMILES	Drug uptake
COc1ccc(N2C(=O)[C@@H](Cc3cccc(OCCc4nc(-c5ccccc5)oc4C)c3)[C@H]2C(=O)O)cc1	0.29 nmol/g

Target: Voltage-gated inwardly rectifying potassium channel KCNH2 (Homo sapiens, UniProt Q12809)
Sequence (Q12809 whole entry): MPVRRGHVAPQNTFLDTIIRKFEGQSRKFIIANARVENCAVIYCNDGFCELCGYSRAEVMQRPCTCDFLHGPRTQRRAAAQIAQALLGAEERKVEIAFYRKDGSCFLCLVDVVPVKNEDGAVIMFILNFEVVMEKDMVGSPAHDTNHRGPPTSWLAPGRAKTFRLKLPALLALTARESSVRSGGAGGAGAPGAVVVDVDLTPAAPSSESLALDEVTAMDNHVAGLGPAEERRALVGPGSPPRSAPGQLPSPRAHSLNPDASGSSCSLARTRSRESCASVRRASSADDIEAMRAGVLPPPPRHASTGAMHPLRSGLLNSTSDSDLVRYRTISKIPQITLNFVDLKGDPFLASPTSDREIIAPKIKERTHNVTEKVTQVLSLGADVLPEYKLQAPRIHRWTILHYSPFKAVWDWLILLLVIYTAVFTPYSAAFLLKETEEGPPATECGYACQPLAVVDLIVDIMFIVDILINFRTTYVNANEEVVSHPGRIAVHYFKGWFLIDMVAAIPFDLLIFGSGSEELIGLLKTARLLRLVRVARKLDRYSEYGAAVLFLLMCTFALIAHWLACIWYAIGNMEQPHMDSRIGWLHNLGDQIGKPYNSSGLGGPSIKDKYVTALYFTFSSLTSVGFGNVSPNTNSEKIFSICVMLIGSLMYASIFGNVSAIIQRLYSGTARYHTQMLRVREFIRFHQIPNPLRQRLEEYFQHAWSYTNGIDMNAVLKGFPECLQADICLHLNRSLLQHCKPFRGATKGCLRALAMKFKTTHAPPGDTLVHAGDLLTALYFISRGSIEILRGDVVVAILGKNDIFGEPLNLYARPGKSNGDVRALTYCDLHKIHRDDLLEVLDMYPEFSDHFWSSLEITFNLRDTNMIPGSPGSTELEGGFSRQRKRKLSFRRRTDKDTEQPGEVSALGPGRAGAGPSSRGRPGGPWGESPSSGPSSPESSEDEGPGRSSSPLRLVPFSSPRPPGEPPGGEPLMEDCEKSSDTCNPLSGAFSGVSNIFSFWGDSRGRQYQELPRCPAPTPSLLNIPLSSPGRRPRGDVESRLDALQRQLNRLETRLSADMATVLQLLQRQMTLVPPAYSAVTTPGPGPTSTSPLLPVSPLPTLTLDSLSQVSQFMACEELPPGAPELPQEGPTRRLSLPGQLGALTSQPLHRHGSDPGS
Experiment: Inhibition of human ERG by FLIPR assay
Details: not given

SMILES	IC50
COc1ccc(N2C(=O)[C@@H](Cc3ccc(OCCc4nc(-c5ccccc5)oc4C)cc3)[C@H]2C(=O)O)cc1	54000 nM

Target: T1, Cytochrome P450 3A4
Experiment: Inhibition of CYP3A4 in presence of 7-benzyloxyresorufin substrate
Assay type: ADME
Details: not given

SMILES	IC50
COc1ccc(N2C(=O)[C@@H](Cc3ccc(OCCc4nc(-c5ccccc5)oc4C)cc3)[C@H]2C(=O)O)cc1	26000 nM
COc1cccc(-c2nc(CCOc3cccc(C[C@@H]4C(=O)N(c5ccc(C(C)(C)C)cc5)[C@@H]4C(=O)O)c3)c(C)o2)c1	19000 nM
COc1ccc(N2C(=O)[C@@H](Cc3cccc(OCCc4nc(-c5ccccc5)oc4C)c3)[C@H]2C(=O)O)cc1	830 nM

System: Mus musculus
Experiment: Decrease in plasma triglyceride level in db/db mouse at 10 mg/kg/day, po qd after 14 days
Assay type: functional
Set-up: scale not given: the % may be the effect or the level left
Details: not given

SMILES	Activity
COc1ccc(N2C(=O)[C@@H](Cc3cccc(OCCc4nc(-c5ccccc5)oc4C)c3)[C@H]2C(=O)O)cc1	0%

Target: T3, Peroxisome proliferator-activated receptor alpha
Details: not given

SMILES	IC50
Cc1oc(-c2ccc(Cl)cc2)nc1CCOc1cccc(C[C@@H]2C(=O)N(c3ccc(C(C)(C)C)cc3)[C@@H]2C(=O)O)c1	480 nM
COc1ccc(N2C(=O)[C@@H](Cc3ccc(OCCc4nc(-c5ccccc5)oc4C)cc3)[C@H]2C(=O)O)cc1	730 nM
COc1cccc(-c2nc(CCOc3cccc(C[C@@H]4C(=O)N(c5ccc(C(C)(C)C)cc5)[C@@H]4C(=O)O)c3)c(C)o2)c1	520 nM
COc1ccc(N2C(=O)[C@@H](Cc3cccc(OCCc4nc(-c5ccccc5)oc4C)c3)[C@H]2C(=O)O)cc1	360 nM

Target: T2, Peroxisome proliferator-activated receptor gamma
Details: not given

SMILES	EC50
Cc1oc(-c2ccc(Cl)cc2)nc1CCOc1cccc(C[C@@H]2C(=O)N(c3ccc(C(C)(C)C)cc3)[C@@H]2C(=O)O)c1	60 nM
COc1ccc(N2C(=O)[C@@H](Cc3ccc(OCCc4nc(-c5ccccc5)oc4C)cc3)[C@H]2C(=O)O)cc1	20 nM
COc1cccc(-c2nc(CCOc3cccc(C[C@@H]4C(=O)N(c5ccc(C(C)(C)C)cc5)[C@@H]4C(=O)O)c3)c(C)o2)c1	40 nM
COc1ccc(N2C(=O)[C@@H](Cc3cccc(OCCc4nc(-c5ccccc5)oc4C)c3)[C@H]2C(=O)O)cc1	90 nM
